Assay results reported in ChEMBL document CHEMBL3091394, “Novel tacrine-ebselen hybrids with improved cholinesterase inhibitory, hydrogen peroxide and peroxynitrite scavenging activity” (Bioorg Med Chem Lett, 2013).
Activity calls are given as the source filed them. The rule behind the calls is not given here.

Tests used:
Cholinesterase = Cholinesterase (Equus caballus, UniProt P81908)
Description: Inhibition of equine serum BuChE using butylthiocholine chloride as substrate preincubated for 15 mins by Ellman's method

Acetylcholinesterase [1] = biological target: Acetylcholinesterase (Electrophorus electricus, UniProt O42275)
Description: Inhibition of electric eel AChE using acetylthiocholine chloride as substrate preincubated for 15 mins by Ellman's method

[2] = Antioxidant activity assessed as hydrogen peroxide radical scavenging activity at 12.5 uM after 10 hrs by horseradish peroxidase assay; assay type: functional
[3] = Antioxidant activity assessed as hydrogen peroxide radical scavenging activity at 25 uM after 10 hrs by horseradish peroxidase assay; assay type: functional
[4] = Antioxidant activity assessed as hydrogen peroxide radical scavenging activity at 20 to 100 uM after 10 hrs by horseradish peroxidase assay; assay type: functional
[5] = Cytotoxicity against human HSC assessed as cell viability at 5 to 10 uM after 24 hrs by MTT assay
[6] = Antioxidant activity assessed as pyrogallol red dye bleaching-induced peroxynitrite scavenging activity up to 62.5 uM relative to ebselen; assay type: functional
Acetylcholinesterase [7] = biological target: Acetylcholinesterase (Homo sapiens, UniProt P22303); assay: Inhibition of human AChE using acetylthiocholine chloride as substrate preincubated for 15 mins by Ellman's method
Sequence of Acetylcholinesterase (Homo sapiens, UniProt P22303) (P22303 whole entry): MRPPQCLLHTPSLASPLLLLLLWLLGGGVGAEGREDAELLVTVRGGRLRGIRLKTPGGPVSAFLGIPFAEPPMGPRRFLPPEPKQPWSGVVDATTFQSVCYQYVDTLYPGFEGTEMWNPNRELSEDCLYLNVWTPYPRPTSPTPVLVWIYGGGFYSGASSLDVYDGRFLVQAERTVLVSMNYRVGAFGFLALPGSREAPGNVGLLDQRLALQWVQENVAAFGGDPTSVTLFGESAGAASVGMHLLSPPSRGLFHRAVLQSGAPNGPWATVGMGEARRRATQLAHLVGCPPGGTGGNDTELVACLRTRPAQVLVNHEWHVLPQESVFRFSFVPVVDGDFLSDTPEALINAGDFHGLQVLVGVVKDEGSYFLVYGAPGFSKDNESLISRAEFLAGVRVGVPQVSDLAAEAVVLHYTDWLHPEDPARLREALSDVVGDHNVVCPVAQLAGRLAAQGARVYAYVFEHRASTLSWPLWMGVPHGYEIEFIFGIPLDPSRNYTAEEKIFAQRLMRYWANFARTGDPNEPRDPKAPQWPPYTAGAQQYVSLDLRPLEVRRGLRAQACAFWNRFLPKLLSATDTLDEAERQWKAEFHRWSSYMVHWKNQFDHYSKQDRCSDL

Sequence of Cholinesterase (P81908 whole entry): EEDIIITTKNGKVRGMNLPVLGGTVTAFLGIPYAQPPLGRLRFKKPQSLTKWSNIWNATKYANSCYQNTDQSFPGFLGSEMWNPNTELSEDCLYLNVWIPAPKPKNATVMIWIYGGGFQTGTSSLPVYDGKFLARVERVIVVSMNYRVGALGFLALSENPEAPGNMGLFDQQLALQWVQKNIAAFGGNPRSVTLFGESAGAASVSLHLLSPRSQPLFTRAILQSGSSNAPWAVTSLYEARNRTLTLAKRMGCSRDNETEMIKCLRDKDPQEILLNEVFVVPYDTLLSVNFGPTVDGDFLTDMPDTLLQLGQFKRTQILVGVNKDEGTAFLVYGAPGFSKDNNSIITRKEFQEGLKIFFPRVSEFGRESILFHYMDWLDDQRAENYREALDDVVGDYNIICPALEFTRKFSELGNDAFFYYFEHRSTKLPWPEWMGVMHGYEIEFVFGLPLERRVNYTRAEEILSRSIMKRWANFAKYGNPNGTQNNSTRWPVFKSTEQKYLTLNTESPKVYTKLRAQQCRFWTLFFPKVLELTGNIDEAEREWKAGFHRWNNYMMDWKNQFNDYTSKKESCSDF
Sequence of Acetylcholinesterase (Electrophorus electricus, UniProt O42275) (O42275 whole entry): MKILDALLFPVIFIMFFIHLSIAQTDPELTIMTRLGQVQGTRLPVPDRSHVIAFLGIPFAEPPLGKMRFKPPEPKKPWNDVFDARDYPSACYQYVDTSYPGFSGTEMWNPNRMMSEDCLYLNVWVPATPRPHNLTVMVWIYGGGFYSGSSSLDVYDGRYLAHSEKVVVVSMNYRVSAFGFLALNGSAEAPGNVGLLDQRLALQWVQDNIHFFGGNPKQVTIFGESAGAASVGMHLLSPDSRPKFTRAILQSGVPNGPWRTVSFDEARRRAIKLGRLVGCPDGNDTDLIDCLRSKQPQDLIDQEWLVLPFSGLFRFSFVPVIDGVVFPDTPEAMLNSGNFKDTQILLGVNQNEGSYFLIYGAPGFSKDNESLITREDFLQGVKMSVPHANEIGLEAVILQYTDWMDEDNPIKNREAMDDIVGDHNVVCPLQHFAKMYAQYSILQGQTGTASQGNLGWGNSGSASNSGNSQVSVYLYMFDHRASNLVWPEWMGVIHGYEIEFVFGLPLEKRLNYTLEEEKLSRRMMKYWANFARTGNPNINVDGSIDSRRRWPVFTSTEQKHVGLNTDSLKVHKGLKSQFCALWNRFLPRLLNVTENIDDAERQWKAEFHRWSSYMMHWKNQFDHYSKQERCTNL

Row | SMILES | IC50 (Cholinesterase) [nM] | IC50 (Acetylcholinesterase [1]) [nM] | Activity [2] | Activity [3] [%] | Activity [4] | Activity [5] | Ratio [6] | IC50 (Acetylcholinesterase [7]) [nM]
1 | c1ccc2c(NCCCCCCCNc3c4c(nc5ccccc35)CCCC4)c3c(nc2c1)CCCC3 | 4.08 | 0.17 |  |  |  |  |  | 
2 | O=c1c2ccccc2[se]n1CCCCCNc1c2c(nc3ccccc13)CCCC2 | 4.52 | 70.8 |  |  |  |  |  | 
3 | O=c1c2ccccc2[se]n1-c1ccccc1 |  |  | Active | 89.7 | Active |  |  | 
4 | COc1cc2[se]n(CCCCCCNc3c4c(nc5ccccc35)CCCC4)c(=O)c2cc1OC | 2.8 | 2.55 | Active | 83.7 | Active | Non-toxic | 1.26 | 15.1
5 | O=c1c2ccccc2[se]n1CCCCCCCCCNc1c2c(nc3ccccc13)CCCC2 | 25.8 | 32 |  |  |  |  |  | 
6 | O=c1c2ccccc2[se]n1CCCCNc1c2c(nc3ccccc13)CCCC2 | 4.94 | 152 |  |  |  |  |  | 
7 | O=c1c2ccccc2[se]n1CCCCCCCCNc1c2c(nc3ccccc13)CCCC2 | 16.6 | 24.1 |  |  |  |  |  | 
8 | O=c1c2ccccc2[se]n1CCCNc1c2c(nc3ccccc13)CCCC2 | 28.5 | 423 |  |  |  |  |  | 
9 | O=c1c2ccccc2[se]n1CCCCCCCNc1c2c(nc3ccccc13)CCCC2 | 14 | 26.5 |  |  |  |  |  | 
10 | O=c1c2ccccc2[se]n1CCNc1c2c(nc3ccccc13)CCCC2 | 38.9 | 657 |  |  |  |  |  | 
11 | O=c1c2ccccc2[se]n1CCCCCCNc1c2c(nc3ccccc13)CCCC2 | 4.37 | 6.32 | Active | 70 | Active |  | 1.17 | 19.5
